Test results taken from PMC12156367, “Synthesis and Biological Evaluation of Seco-Coumarin/Furoxan Hybrids as Potent Anti-Tumor Agents to Overcome Multidrug Resistance via Multiple Mechanisms” (Molecules, 2025).

Columns and labels:
[1] = system: MCF-7 (human breast cancer cell line); assay: In vitro antiproliferative assay (MTT, 48 h), MCF-7; type: cell-based; conditions: MCF7, mean of three determinations
Excerpt: The MDA-MB-468 cell line was procured from the Cell Bank of the Chinese Academy of Sciences. The MCF-7, MCF-7/ADR, MCF-10A, and MDA-MB-231 cell lines were kindly provided by Professor Xianyi Sha (Fudan University, Shanghai, China). The HUVEC cells were kindly provided by Associate Professor Hulie Zeng (Fudan University, Shanghai, China). The MDA-MB-468, MDA-MB-231, MCF-7, MCF-10A, and HUVEC cells were cultivated in DMEM (Service Biotechnology, China) supplemented with 10% FBS (Capricorn Scientific, Germany) and 1% penicillin-streptomycin (Meilunbio, Dalian, China). For the MCF-7/ADR cells, they were cultured in RPMI-1640 (Service Biotechnology, Wuhan, China), containing 10% FBS and 1% penicillin-streptomycin. […]
(§1) Following harvest during logarithmic growth, cells were plated in 96-well culture plates at an initial density of 5000 cells per well. […] The OD value at 570nm was measured using a microplate reader (Thermo Fisher, Waltham, MA, USA). Cell proliferation inhibition was determined using the following formula:Inhibition (%) = [(ODDMSO − ODcompd.)/(ODDMSO − ODblank)] × 100
GraphPad Prism software 9 was used to calculate the IC50 values. […] For instance, in the cell experiment, we recorded the cell viability values at different drug concentrations. […]

[2] = system: HUVEC (human umbilical vein endothelial cell lines); assay: Cytotoxicity screen in HUVEC; type: cell-based; conditions: 500 nM concentration
Excerpt: The MDA-MB-468 cell line was procured from the Cell Bank of the Chinese Academy of Sciences. The MCF-7, MCF-7/ADR, MCF-10A, and MDA-MB-231 cell lines were kindly provided by Professor Xianyi Sha (Fudan University, Shanghai, China). The HUVEC cells were kindly provided by Associate Professor Hulie Zeng (Fudan University, Shanghai, China). The MDA-MB-468, MDA-MB-231, MCF-7, MCF-10A, and HUVEC cells were cultivated in DMEM (Service Biotechnology, China) supplemented with 10% FBS (Capricorn Scientific, Germany) and 1% penicillin-streptomycin (Meilunbio, Dalian, China). For the MCF-7/ADR cells, they were cultured in RPMI-1640 (Service Biotechnology, Wuhan, China), containing 10% FBS and 1% penicillin-streptomycin. Additionally, 500 ng/mL of doxorubicin (Sigma-Aldrich, Saint Louis, MO, USA) was incorporated into the RPMI-1640 culture medium to keep drug resistance. All cell lines were cultured in a humidified incubator at 37 °C with a 5% CO2 atmosphere.
as §1, with “well. Incubate the plate overnight at 37 °C to allow the cells to adhere.” for “well.”, “100 […]” for “100”

SMILES: COc1ccc(CCC(=O)c2ccc(OCCOc3no[n+]([O-])c3S(=O)(=O)c3ccccc3)cc2OC)cc1 [Compound 9e, 4-(2-(3-methoxy-4-(3-(4-methoxyphenyl)propanoyl)phenoxy)ethoxy)-3-(phenylsulfonyl)-1,2,5-oxadiazole 2-oxide]
- IC50 [1]: 4.23 µM
- cell survival probability in HUVEC [2]: over 90%
